For the assay, the system named is Staphylococcus aureus ATCC 25423. Nature of the assay: Disk diffusion assay. In kind it is cell-based. The following applies: ATCC25423, 12 μg PenG, read-out: inhibition zone diameter. The protocol:
The PMAA grafted magnetic nanoparticles were used to non-covalently attach the beta-lactam antibiotic penicillin-G (PenG) and subsequently tested for activity against bacteria. Escherichia coli (Gram-negative) and Staphylococcus aureus (Gram-positive) were selected as the target bacteria. The disk diffusion assay of PenG-nanoparticle complex was conducted with a control group of free PenG of the same dose (12 μg PenG). […] Thus, PMAA grafted magnetic nanoparticles enhanced the bioactivity of penG against bacteria when the nanoparticles were physically bound with PenG. Without wishing to be bound by any particular theory, it is believed that the enhanced inhibition activity was due to the locally high concentrations of antibiotics physically attached to PMAA grafted magnetic nanoparticles, which overwhelms the resistance of bacterial strains. The magnetic properties also offer a valuable stimulus technique to direct the nanoparticles in complicated bacterial environments, such as biofilms, while free antibiotic are not able to access cells in the sticky extracellular polymeric substances (EPS) of biofilms.
Escherichia coli ATCC 25922 and Staphylococcus aureus ATCC 25423 were allowed to grow in 10 mL of tryptic soy broth (TSB) at 37° C. overnight to an optical density of 0.8 (OD600=0.8) and then diluted 10-fold. 0.1 mL of the diluted culture was used to inoculate an agar plate. […]

`CC1(C)S[C@@H]2[C@H](NC(=O)Cc3ccccc3)C(=O)N2[C@H]1C(=O)O` [free PenG, penicillin-G]: the zone of inhibition at 12 µg/disc amounted to 18 mm.

For the origin of these results see patent US9504256B2, “Fabrication of magnetic nanoparticles” (University of South Carolina, priority 2013, dated 2016).
